Publication PMC11003488 (Journal of Enzyme Inhibition and Medicinal Chemistry, 2023)

Key:
SF-539 = assay: NCI-60 SRB growth inhibition, one-dose and five-dose; assay type: cell-based; conditions: Homo sapiens; for GI50: SF-539; for inhibition at 10 µM: SF-539, read-out: percent growth inhibition
K-562 = assay: as above; assay type: cell-based; conditions: Homo sapiens; for GI50: K562; for inhibition at 10 µM: K562, read-out: percent growth inhibition
HOP-62 = assay: as above; assay type: cell-based; conditions: Homo sapiens; for GI50: HOP-62; for inhibition at 10 µM: HOP-62, read-out: percent growth inhibition
EKVX = assay: as above; assay type: cell-based; conditions: Homo sapiens; for inhibition at 10 µM: read-out: percent growth inhibition
SK-MEL-2 = assay: as above; assay type: cell-based; conditions: Homo sapiens; for GI50: SK-MEL-2; for inhibition at 10 µM: SK-MEL-2, read-out: percent growth inhibition
SK-OV-3 = assay: as above; assay type: cell-based; conditions: Homo sapiens; for GI50: SK-OV-3; for inhibition at 10 µM: SK-OV-3, read-out: percent growth inhibition
NCI-H23 = assay: as above; assay type: cell-based; conditions: Homo sapiens; for GI50: NCI-H23; for inhibition at 10 µM: NCI-H23, read-out: percent growth inhibition
Human VEGFR-2 = Human VEGFR-2 (Homo sapiens, UniProt P35968); assay: VEGFR-2 inhibition assay; assay type: biochemical
Sequence of Human VEGFR-2 (P35968 20-1356): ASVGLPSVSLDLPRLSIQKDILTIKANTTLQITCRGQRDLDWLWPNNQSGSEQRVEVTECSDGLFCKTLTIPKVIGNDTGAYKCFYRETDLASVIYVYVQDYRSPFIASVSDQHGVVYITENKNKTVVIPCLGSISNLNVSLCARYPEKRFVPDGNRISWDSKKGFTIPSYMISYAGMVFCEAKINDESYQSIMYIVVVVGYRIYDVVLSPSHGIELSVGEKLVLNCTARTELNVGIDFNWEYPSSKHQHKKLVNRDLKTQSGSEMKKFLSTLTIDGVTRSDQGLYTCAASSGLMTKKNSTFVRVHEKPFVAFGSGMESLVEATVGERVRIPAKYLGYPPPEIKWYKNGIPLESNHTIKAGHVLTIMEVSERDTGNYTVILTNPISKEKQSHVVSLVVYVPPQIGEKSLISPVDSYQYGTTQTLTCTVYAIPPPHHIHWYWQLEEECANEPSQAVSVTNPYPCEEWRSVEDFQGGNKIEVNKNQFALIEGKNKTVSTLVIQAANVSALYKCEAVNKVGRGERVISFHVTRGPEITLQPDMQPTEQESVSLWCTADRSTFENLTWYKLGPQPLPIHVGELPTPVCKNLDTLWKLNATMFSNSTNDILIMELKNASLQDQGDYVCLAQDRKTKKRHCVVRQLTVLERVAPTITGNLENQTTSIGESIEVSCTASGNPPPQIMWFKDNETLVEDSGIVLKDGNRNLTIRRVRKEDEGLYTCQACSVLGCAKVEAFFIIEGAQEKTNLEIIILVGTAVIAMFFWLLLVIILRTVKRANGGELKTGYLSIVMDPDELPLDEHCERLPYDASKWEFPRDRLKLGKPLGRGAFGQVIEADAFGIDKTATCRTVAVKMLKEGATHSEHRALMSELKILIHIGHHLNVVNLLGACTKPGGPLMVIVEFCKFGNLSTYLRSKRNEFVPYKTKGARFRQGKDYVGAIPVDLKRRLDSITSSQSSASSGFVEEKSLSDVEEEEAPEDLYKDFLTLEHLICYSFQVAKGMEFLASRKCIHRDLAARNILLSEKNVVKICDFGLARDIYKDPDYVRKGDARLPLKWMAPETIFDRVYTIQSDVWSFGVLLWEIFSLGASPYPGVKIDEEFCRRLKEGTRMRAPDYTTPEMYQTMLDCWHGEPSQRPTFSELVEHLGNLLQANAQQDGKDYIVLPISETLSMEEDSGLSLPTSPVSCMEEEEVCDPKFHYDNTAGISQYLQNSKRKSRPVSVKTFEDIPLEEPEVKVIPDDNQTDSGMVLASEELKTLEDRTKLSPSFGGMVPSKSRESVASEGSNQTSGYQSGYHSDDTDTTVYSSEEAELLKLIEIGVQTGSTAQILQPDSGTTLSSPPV

Renal cancer cell lines = assay: NCI-60 SRB growth inhibition, subpanel; assay type: cell-based, human; conditions: Homo sapiens, read-out: GI50 MG-MID
MDA-MB-231/ATCC = assay: NCI-60 SRB growth inhibition, one-dose and five-dose; assay type: cell-based; conditions: Homo sapiens; for GI50: MDA-MB-231
CNS cancer cell lines = assay: NCI-60 SRB growth inhibition, subpanel; assay type: cell-based, human; conditions: Homo sapiens, read-out: GI50 MG-MID
Melanoma cell lines = assay: NCI-60 SRB growth inhibition, subpanel; assay type: cell-based, human; conditions: Homo sapiens, read-out: GI50 MG-MID
Colon cancer cell lines = assay: NCI-60 SRB growth inhibition, subpanel; assay type: cell-based, human; conditions: Homo sapiens, read-out: GI50 MG-MID
NSCLC cell lines = assay: NCI-60 SRB growth inhibition, subpanel; assay type: cell-based, human; conditions: Homo sapiens, read-out: GI50 MG-MID
SF-295 = assay: NCI-60 SRB growth inhibition, one-dose and five-dose; assay type: cell-based; conditions: Homo sapiens; for GI50: SF-295; for inhibition at 10 µM: SF-295, read-out: percent growth inhibition
UO-31 = assay: as above; assay type: cell-based; conditions: Homo sapiens; for GI50: UO-31
[1] = tested on: Prostate cancer cell lines; assay: NCI-60 SRB growth inhibition, subpanel; assay type: cell-based, human; conditions: Homo sapiens, read-out: GI50 MG-MID
SK-MEL-28 = assay: NCI-60 SRB growth inhibition, one-dose and five-dose; assay type: cell-based; conditions: Homo sapiens; for GI50: SK-MEL-28; for inhibition at 10 µM: SK-MEL-28, read-out: percent growth inhibition
PC-3 = assay: as above; assay type: cell-based; conditions: Homo sapiens; for GI50: PC-3; for inhibition at 10 µM: PC-3, read-out: percent growth inhibition
MOLT-4 = assay: as above; assay type: cell-based; conditions: Homo sapiens; for GI50: MOLT-4; for inhibition at 10 µM: MOLT-4, read-out: percent growth inhibition
HCC-2998 = assay: as above; assay type: cell-based; conditions: Homo sapiens; for GI50: HCC 2998; for inhibition at 10 µM: HCC 2998, read-out: percent growth inhibition
[2] = tested on: Ovarian cancer cell lines; assay: NCI-60 SRB growth inhibition, subpanel; assay type: cell-based, human; conditions: Homo sapiens, read-out: GI50 MG-MID
[3] = Cytotoxicity towards normal fibroblasts, safety index; assay type: cell-based, human; conditions: human, WI-38 normal fibroblast cells
[4] = tested on: WI-38 normal human fibroblast cells; assay: as above; assay type: cell-based; conditions: WI-38 versus cancer cell lines
Leukaemia cell lines = assay: NCI-60 SRB growth inhibition, subpanel; assay type: cell-based, human; conditions: Homo sapiens, read-out: GI50 MG-MID
UACC-257 = assay: NCI-60 SRB growth inhibition, one-dose and five-dose; assay type: cell-based; conditions: Homo sapiens; for GI50: UACC-257; for inhibition at 10 µM: UACC-257, read-out: percent growth inhibition
NCI-H322M = assay: as above; assay type: cell-based; conditions: Homo sapiens; for inhibition at 10 µM: read-out: percent growth inhibition
NCI-H522 = assay: as above; assay type: cell-based; conditions: Homo sapiens; for GI50: NCI-H522; for inhibition at 10 µM: NCI-H522, read-out: percent growth inhibition
Breast cancer cell lines = assay: NCI-60 SRB growth inhibition, subpanel; assay type: cell-based, human; conditions: Homo sapiens, read-out: GI50 MG-MID
LOX IMVI = assay: NCI-60 SRB growth inhibition, one-dose and five-dose; assay type: cell-based; conditions: Homo sapiens; for inhibition at 10 µM: read-out: percent growth inhibition
RXF 393 = assay: as above; assay type: cell-based; conditions: Homo sapiens; for GI50: RXF 393; for inhibition at 10 µM: RXF 393, read-out: percent growth inhibition

For `CC(=O)Nc1ccc(/C=C/C(=O)c2cccc(NCc3ccc(CO)cc3)c2)cc1` [Compound 5j, (E)-N-(4–(3-(3-((4-(hydroxymethyl)benzyl)amino)phenyl)-3-oxoprop-1-en-1-yl)phenyl) acetamide], the GI50 (SF-539) was 7.37 µM, the inhibition at 10 µM (SF-539) was 181% and the GI50 (K-562) was 3.43 µM. For the same molecule, the inhibition at 10 µM (K-562) was 104%, the GI50 (HOP-62) was 18.9 µM and the inhibition at 10 µM (HOP-62) was 93.7%. It also gave a GI50 (EKVX) of 14.4 µM, an inhibition at 10 µM (EKVX) of 88.9% and a GI50 (SK-MEL-2) of 15.3 µM. The inhibition at 10 µM (SK-MEL-2) was 53.9%, the GI50 (SK-OV-3) was 16.3 µM and the inhibition at 10 µM (SK-OV-3) was 4.73%. It also gave a GI50 (NCI-H23) of 13.9 µM, an inhibition at 10 µM (NCI-H23) of 95.9% and an IC50 (Human VEGFR-2) of 0.82 ± 0.016 µM. It also gave a GI50 (Renal cancer cell lines) of 13.3 µM, a GI50 (MDA-MB-231/ATCC) of 6.79 µM and a GI50 (CNS cancer cell lines) of 10.1 µM. The GI50 (Melanoma cell lines) was 11.5 µM, the GI50 (Colon cancer cell lines) was 7.35 µM and the GI50 (NSCLC cell lines) was 13.9 µM. It also gave a GI50 (SF-295) of 12.4 µM, an inhibition at 10 µM (SF-295) of 79.5% and a GI50 (UO-31) of 10.7 µM. For the same molecule, the GI50 [1] was 8.67 µM, the GI50 (SK-MEL-28) was 13.4 µM and the inhibition at 10 µM (SK-MEL-28) was 167%. It also gave a GI50 (PC-3) of 12.3 µM, an inhibition at 10 µM (PC-3) of 81.8% and a GI50 (MOLT-4) of 2.85 µM. For the same molecule, the inhibition at 10 µM (MOLT-4) was 120%, the GI50 (HCC-2998) was 13.2 µM and the inhibition at 10 µM (HCC-2998) was 199%. For the same molecule, the GI50 [2] was 12.4 µM, the GI50 at 48 h [3] was over 100 µM and the Safety index [4] was over 1. It also gave a GI50 (Leukaemia cell lines) of 5.36 µM, a GI50 (UACC-257) of 11.7 µM and an inhibition at 10 µM (UACC-257) of 135%. It also gave a GI50 (NCI-H322M) of 14.4 µM, an inhibition at 10 µM (NCI-H322M) of 38.8% and a GI50 (NCI-H522) of 5 µM. The inhibition at 10 µM (NCI-H522) was 178%, the GI50 (Breast cancer cell lines) was 10.1 µM and the GI50 (LOX IMVI) was 2.96 µM. The inhibition at 10 µM (LOX IMVI) was 194%, the GI50 (RXF 393) was 11.8 µM and the inhibition at 10 µM (RXF 393) was 190%.

Work on `COc1ccc(CNc2cccc(C(=O)/C=C/c3cccnc3)c2)cc1OC` [Compound 5c, (E)-1–(3-((3,4-dimethoxybenzyl)amino)phenyl)-3-(pyridin-3-yl)prop-2-en-1-one] yielded a GI50 (SF-539) of 12.4 µM, an inhibition at 10 µM (SF-539) of 162% and a GI50 (K-562) of 2.71 µM. For the same molecule, the inhibition at 10 µM (K-562) was 89%, the GI50 (HOP-62) was 12.2 µM and the inhibition at 10 µM (HOP-62) was 30%. For the same molecule, the GI50 (EKVX) was 10.4 µM, the inhibition at 10 µM (EKVX) was 62.3% and the GI50 (SK-MEL-2) was 15.1 µM. The inhibition at 10 µM (SK-MEL-2) was 23.5%, the GI50 (SK-OV-3) was 16.6 µM and the inhibition at 10 µM (SK-OV-3) was 41.8%. For the same molecule, the GI50 (NCI-H23) was 1.99 µM, the inhibition at 10 µM (NCI-H23) was 73.6% and the IC50 (Human VEGFR-2) was 0.96 ± 0.012 µM. It also gave a GI50 (Renal cancer cell lines) of 9.08 µM, a GI50 (MDA-MB-231/ATCC) of 2.96 µM and an inhibition at 10 µM (MDA-MB-231/ATCC; MDA-MB-231, read-out: percent growth inhibition) of 94.5%. The GI50 (CNS cancer cell lines) was 9.11 µM, the GI50 (Melanoma cell lines) was 7.75 µM and the GI50 (Colon cancer cell lines) was 4.45 µM. The GI50 (NSCLC cell lines) was 11.2 µM, the GI50 (SF-295) was 10.4 µM and the inhibition at 10 µM (SF-295) was 53.7%. It also gave a GI50 (UO-31) of 10.5 µM, an inhibition at 10 µM (UO-31; UO-31, read-out: percent growth inhibition) of 65% and a GI50 [1] of 10.2 µM. The GI50 (SK-MEL-28) was 5.22 µM, the inhibition at 10 µM (SK-MEL-28) was 98.4% and the GI50 (PC-3) was 8 µM. It also gave an inhibition at 10 µM (PC-3) of 89%, a GI50 (MOLT-4) of 2.95 µM and an inhibition at 10 µM (MOLT-4) of 38.9%. The GI50 (HCC-2998) was 2.04 µM, the inhibition at 10 µM (HCC-2998) was 75.8% and the GI50 [2] was 8.65 µM. The GI50 at 48 h [3] was over 100 µM, the Safety index [4] was over 1 and the GI50 (Leukaemia cell lines) was 2.6 µM. The GI50 (UACC-257) was 12.5 µM, the inhibition at 10 µM (UACC-257) was 34% and the GI50 (NCI-H322M) was 14.8 µM. The inhibition at 10 µM (NCI-H322M) was 14.2%, the GI50 (NCI-H522) was 13.6 µM and the inhibition at 10 µM (NCI-H522) was 138%. The GI50 (Breast cancer cell lines) was 5.96 µM, the GI50 (LOX IMVI) was 1.76 µM and the inhibition at 10 µM (LOX IMVI) was 192%. The GI50 (RXF 393) was 10.8 µM and the inhibition at 10 µM (RXF 393) was 64.9%.
